Source: patent US5989846A, “Assays to identify inducers of plant defense resistance” (Rutgers, The State University of New Jersey, priority 1995, dated 1999)

How the values were obtained:
[1] = system: salicylic acid binding protein; test: Competitive [14C] salicylic acid binding assay (spin-column); design: species or system tobacco; details: for Inhibition (%) 2× / Inhibition (%) 10×: [14C] salicylic acid 20 μM; for Inhibition (%) 2×: 40 μM (2×) unlabeled competitor; for Inhibition (%) 10×: 200 μM (10×) unlabeled competitor
Description: The 180 kDa native binding protein isolated was tested for binding affinity and specificity. A competitive assay was established using salicylic acid binding protein fractionated from plants as previously described.
A key element during the characterization and the purification process is a simple, inexpensive, sensitive and reliable method for determining the salicylic acid binding activity. For this purpose, spin-column exclusion chromatography was used to separate the bound [^14 C] salicylic acid (excluded) from the bulk free salicylic acid (included). Specifically, a 1.5 ml Eppendorf tube was punctured at the tip with a 20-gauge needle and a small amount of glass wool was added to cover the small hole. The tube was then filled with Bio-Gel P-6DG desalting gel (exclusion limit 6 KDa; purchased from Bio-Rad, Melville, N.Y.) which have been swollen in water. An alternative gel is Sephadex G-25 fine (from Pharmacia, Piscataway, N.J.). Excess liquid in the gel was removed and centrifuged for 5 minutes at full speed in a Dynamic centrifuge (Becton Dickinson). The process was then repeated several times until the gel filled the tube. After incubation of an aliquot of the extract or column fractions for 2 hr at 4° C. with 5 μM-20 μM [^14 C salicylic acid] (specifically radioactivity 55 Ci/mol; purchased from New England Nuclear), 150 μl of proteins binding sample was loaded onto the tube column, which was then rapidly centrifuged for 2 minutes at full speed and the solution of proteins and bound [^14 C-salicylic acid] that was excluded from the gel was collected into another tube that had been placed under the tube column during the centrifugation. One hundred microliters of this solution was then used to determine the amount of bound salicylic acid. […] For example, to determine the inhibitory effect of various salicylic acid analogues on salicylic acid binding activity, these individual analogues were included in the binding mixture containing both the protein and [^14 C] salicylic acid during the 2 hr incubation, and resulting binding activity was determined in comparison to the activity in the absence of these analogues. Likewise, to determine the effect of pH and antioxidants on the binding activity the protein sample was either dialyzed against a large volume of buffers with different pH or antioxidants were added to the protein sample to various concentrations and the resulting binding activities were then determined with the spin-column method in comparison with the activity determined in the absence of these treatments.

[2] = system: resistance or PR gene expression; design: key: ++: indicates a high level of biological activity; +: indicates a lower level of biological activity; ±: indicates low, but detectable biological activity in some assays; -: indicates no biological activity; details: Table 3; values reported in literature; cited from earlier work
ascorbate peroxidase = test: Ascorbate peroxidase activity in tobacco leaf extracts; format: biochemical, Nicotiana tabacum cv. Xanthi nc; details: 200 μM compound, corrected for quenching of auto oxidation
Description: […] Two grams of leaves from 6-8 week old tobacco plants (Nicotiana tabacum cv. Xanthi nc) grown at 22° C. in a 14 hr light cycle were homogenized under liquid nitrogen using a pestle and mortar.
To obtain ascorbate peroxidase-containing extracts, the soluble proteins were extracted by grinding the powder in 10 ml of 100 mM potassium phosphate, pH 7, containing […] ascorbate and 1% (weight/volume) polyvinylpyrrolidone, with a small amount of quartz sand. The homogenate was centrifuged at 14,000 g for 5 min. […] The pellet resulting from centrifugation (14,000 g, 15 min.) was resuspended in extraction buffer (100 mM potassium phosphate, pH7, containing 0.25 mM ascorbate and 1% (weight/volume) polyvinylpyrrolidone) and desalted on a PD-10 column (Pharmacia) equilibrated with 50 mM potassium phosphate, pH 7, containing 100 μM ascorbate. The extract was used immediately. […] The amount of protein per assay was 30-50 μg. Oxidation of ascorbate was followed by the decrease in the absorbance at 290 nm.
The values illustrated in FIG. 17 are the mean values for three replicated assays.

PR1 genes = test: PR-1 protein/gene expression in tobacco leaves (immunoblot); format: in vivo; details: for Induction of PR1 gene expression: tobacco leaves
Description: The level of PR1 protein in tobacco leaves was analyzed by immunoblot analysis to establish biological activity. Three leaf discs (1 cm in diameter) were homogenized in 200 microliters of buffer containing 50 mM Tris (pH 8.0), 1 mM EDTA, 12 mM beta-mercaptoethanol and 10 mg/ml phenylmethylsulfonyl fluoride. The homogenate was centrifuged at full speed for 10 minutes in an Eppendorf microcentrifuge. The supernatant was fractionated with 15% polyacrylamide gel under denatured conditions. Protein blotting was done with a monoclonal antibody specific to PR1 protein and protein-antibody complexes were detected with an ECL kit from Amersham.
PR gene expression is both induced by SA and associated with the development of SAR. Therefore, it was of interest to test whether SA's mechanism of action for the induction of PR genes was via its inhibition of catalases which leads to enhanced H2 O2 levels. To address this question, H2 O2 abundance was artificially raised in tobacco leaves by treating with H2 O2 or compounds which either inhibit the catalase activity, like SA itself, or promote generation of H2 O2 in vivo. […]

catalase = test: In vivo catalase activity in tobacco suspension cells (oxygen electrode); format: cell-based; design: Inhibition (%) Catalase activity: concentration or dose not given beside the values; details: for Inhibition (%) Catalase activity: Table 8
Description: This was determined by adding increasing concentrations of SA or INA to tobacco suspension cells (derived from cultivar Xanthi nc), as described below. The tobacco suspension cell culture was grown in the dark in MS medium at approximately 22° C. with agitation (160 rpm). Cells were maintained by diluting 10-fold every 5 days. For experimentation, 5 ml of suspension cells obtained 3 days after dilution was transferred to a 25 ml Erlenmeyer flask and agitated (100 rpm) at room temperature in the absence or presence of SA or INA which had been adjusted to pH 5.8. After 1 hr, 1 ml of the treated cell suspension was transferred to 7 ml of fresh MS medium containing SA or INA in a 10 ml beaker (density was approximately 6 mg cells per ml). Cells were maintained in suspension with a magnetic stir bar. In vivo catalase activity was determined by measuring, with an oxygen electrode, the rate of H2 O2 -dependent O2 production immediately after addition of H2 O2 to 10 mM final concentration.

SABP/catalase = test: Competition with 14C-labeled SA for SABP/catalase in crude leaf extracts; format: binding, tobacco; details: for Inhibition (%) [14C]SA binding: Table 8, 14C-labeled SA 20 μM, 1 mM unlabeled compound, crude leaf extracts

Row | Structure (SMILES) | Inhibition (%) 2× [1] [%] | Inhibition (%) 10× [1] [%] | Biological activity [2] | Inhibition (%) Catalase activity (catalase) [%] | Inhibition (%) [14C]SA binding (SABP/catalase) [%] | other results
1 | O=C(O)c1ccc(O)c(O)c1O [2,3,4-Trihydroxybenzoic acid] | 1 | 2 | - |  |  | 
2 | O=C(O)c1c(O)cc(O)cc1O [2,4,6-Trihydroxybenzoic acid] | -1 | 3 | - |  |  | 
3 | O=C(O)c1ccccc1Cl [2-Chlorobenzoic acid] | 0 | 2 | - |  |  | 
4 | CCOc1ccccc1C(=O)O [2-Ethoxybenzoic acid] | -3 | 2 | - |  |  | 
5 | O=C(O)c1cc(O)c(O)cc1O [3,4,6-Trihydroxybenzoic acid] | 1 | -1 | - |  |  | 
6 | Nc1cccc(C(=O)O)c1O [3-Aminosalicylic acid] | 1 | 5 | - |  |  | 
7 | Nc1ccc(C(=O)O)c(O)c1 [4-Aminosalicylic acid] | 0 | -1 | - |  |  | % Inhibition of ascorbate peroxidase (ascorbate peroxidase): 9 ± 5%
8 | Nc1ccc(O)c(C(=O)O)c1 [5-Aminosalicylic acid] | 1 | -2 | - |  |  | 
9 | O=C(O)c1ccccc1 [Benzoic acid] | 14 | 25 | + |  |  | Inhibition of [14C] salicylic acid binding relative to unlabeled salicylic acid ([1]; as well as unlabeled salicylic acid): about 20%; Induction of PR1 gene expression (PR1 genes): able to induce the expression of PR1 genes; Concentration needed relative to salicylic acid for similar levels of PR1 gene expression (PR1 genes; tobacco, FIG. 6A): approximately ten-fold
10 | Oc1ccccc1O [Catechol] | 0 | 1 | - |  |  | 
11 | OO [H2 O2, hydrogen peroxide] |  |  |  |  |  | Induction of PR1 gene expression (PR1 genes): induced the expression of PR-1 genes
12 | O=C(O)C=Cc1ccccc1O [O-coumaric acid] |  |  |  |  |  | Competition for binding to salicylic acid binding protein ([1]; competitive binding assay): unable to compete for binding; Induction of PR1 gene expression (PR1 genes): did not induce PR1 gene expression
13 | O=C(O)c1cc(Cl)nc(Cl)c1 [STR1] |  |  |  | 98 | 65 | 
14 | O=C(O)c1cc(Br)nc(Br)c1 [STR2] |  |  |  | 100 | 69 | 
15 | O=C(O)c1cc(F)nc(F)c1 [STR3] |  |  |  | 48 | 63 | 
16 | O=Cc1cc(Cl)nc(Cl)c1 [STR4] |  |  |  | 79 | 25 | 
17 | O=C(O)c1cc(O)nc(O)c1 [STR5] |  |  |  | 25 | 19 | 
18 | CC(C)c1cc(C(=O)O)cc(O)n1 [STR6] |  |  |  | 15 | 11 | 
19 | CCCc1cc(C(=O)O)cc(O)n1 [STR7] |  |  |  | 4 | 7 | 
20 | O=C(O)c1ccccc1O [STR8] |  |  |  | 84 | 90 | 
21 | O=C(O)c1ccc(Cl)cc1O [STR9] |  |  |  | 95 | 88 | 
22 | O=C(O)c1cc(Cl)ccc1O [STR10] |  |  |  | 100 | 87 | 
23 | O=C(O)c1cc(Cl)cc(Cl)c1O [STR11] |  |  |  | 100 | 85 | 
24 | O=C(O)c1cccc(O)c1 [STR12] |  |  |  | 0 | 1 | 
25 | O=C(O)c1ccc(O)cc1 [STR13] |  |  |  | 0 | 0 | 
26 | O=C(O)c1ccccc1S [Thiosalicylic acid] | -5 | 1 | - |  |  | % Inhibition of ascorbate peroxidase (ascorbate peroxidase): 0 ± 2%
27 | O=Cc1cc(Cl)nc(Cl)c1 [analogue #7] |  |  |  |  |  | Induction of PR-1 protein synthesis / PR-1 gene induction (in words) (PR1 genes; N.t. cv. Xanthi nc): active; Inhibition of catalase activity in vivo (in words) (catalase): active; Inhibition of binding of 14C-labeled SA to SABP/catalase in vitro (in words) (SABP/catalase; in vitro): much less active
28 | O=C(O)CO [glycolate] |  |  |  |  |  | Induction of PR1 gene expression (PR1 genes): induced
29 | C[n+]1ccc(-c2cc[n+](C)cc2)cc1 [paraquat] |  |  |  |  |  | Induction of PR1 gene expression (PR1 genes): induced
